Assay results published in patent US11491127B2, “Therapeutic use of compounds” (UCL BUSINESS LTD, priority 2010, dated 2022).

Tests used:
[1] = system: inositol trisphosphate (InsP3) levels in Dictyostelium; conditions: Williams et al., 1999; cited from earlier work
[2] = Table 2; cited from earlier work
[3] = system: Dictyostelium development; assay: Dictyostelium development; assay type: cell-based, Dictyostelium discoideum; conditions: concentrations found in plasma of patients (0.28-0.7 mM)
Method: Screening of a REMI library was carried out as previously described (Kuspa & Loomis, 2006) using A×2 background, with VPA resistant mutants selected for the ability to develop in the presence of 1 mM VPA on R. planticola. Identification of the ablated gene, enabled the identified PLAa (DDB_G0278525; SEQ ID NO: 16) to be recapitulated using by homologous recombination of a knockout cassette. Primers used for amplifying region within the open reading frame of the gene were (5′ […] (SEQ ID NO: 17) and 3′ […] (SEQ ID NO: 18), cloned by pCR2.1 TOPO (Invitrogen Ltd)), cloned into pUC19 using EcoRI digestion, and Sinai digested fragment from pBLPblp (Falx et al, 2004) was inserted into the EcoRV site of the insert. Genetic ablation was confirmed by PCR analysis. […] Development images were observed using a Leica CLS 150× microscope and images recorded using QICAM FAST 1394 camera. Fatty acid activation was determined by the method established by Wilson et al. (Wilson et al, 1982) with slight modifications. […] The organic phase was discarded and the aqueous phase was washed six times with 300 μl of n-heptane to remove non-activated fatty acids before the radioactivity of the acyl-CoA thioester remaining in the aqueous phase was determined in 2 ml of Lumasafe™ Plus fluid (Lumac LSC, Groningen, The Netherlands) in a scintillation counter.

[4] = system: self-sustaining status epilepticus in Sprague Dawley rats; assay: In vivo status epilepticus (perforant path stimulation); parameters: species or system rat; conditions: for effectiveness in status epilepticus model: previously found by the inventors
Method: This method has been described in detail previously (Walker et al., 1999). In brief, male Sprague Dawley rats […] were anesthetized with 1-2% isoflurane in O2. An earth electrode was positioned subcutaneously, and a monopolar recording electrode was implanted stereotactically into the right hippocampus (coordinates, 2.5 mm lateral and 4 mm caudal from bregma). A bipolar stimulating electrode was implanted in the right hemisphere and advanced into the angular bundle (coordinates, 4.4 mm lateral and 8.1 mm caudal from bregma) to stimulate the perforant path. The depths of the electrodes were adjusted to maximize the slope of the dentate granule cell field potential (Guo et al., 1999). The electrodes were held in place with dental acrylic and skull screws. The animals were allowed to recover from anaesthesia. Seven days later, the perforant path was electrically stimulated with 4-5 mA 50 μsec monopolar pulses at 20 Hz for 2 hr; this induced self-sustaining status epilepticus. After 10 min of self-sustaining status epilepticus, compounds or vehicle were administered and the behavioural seizures and EEG were monitored for 3 hours. At this point diazepam (10 mg/kg) was administered to all animals to stop the status epilepticus. Groups were compared by ANOVA followed by post-hoc testing using Tukey test, using SPSS.

[5] = system: inositol levels in Dictyostelium cells; assay: Inositol levels in treated Dictyostelium cells; assay type: cell-based, Dictyostelium discoideum; conditions: time period causing phosphoinositide attenuation (9 min)
Method: Following a 6 min incubation, labelling solution was removed and cells were lysed in acidified methanol and phospholipids were separated as previously detailed (Williams et al., 1999). Phospholipid labelling was quantified using a Typhoon phosphor-imager. Even loading was determined using total lipid stain with copper sulphate. Inositol levels were measured from five hour developed cells (similar to phospholipid labelling), following lyophilisation, as previously described (Maslanski & Busa, 1990).

[6] = system: lipid droplets in Dictyostelium cells; assay: Bodipy fatty acid lipid droplet accumulation; assay type: cell-based, Dictyostelium discoideum; conditions: 0.5 mM VPA; bodipy-labelled lipid

CCCC(CCC)C(=O)O [VPA, 2-propylpentanoic acid, reference compound]
treatment time required for depletion of inositol trisphosphate [1]: 6 h | pKa [2]: 4.6 | effect on development of Dictyostelium [3]: inhibits the development | seizure control in words ([4]; 400 mg/kg, 3 hour test period): strongly attenuated seizures | animals in which seizures completely stopped ([4]; 400 mg/kg, after 2 hours, 7 animals per group): did not terminate the seizures in any | spike amplitude ([4]; 400 mg/kg, first hour): 75.2±9.2% | spike amplitude ([4]; 400 mg/kg, second hour): 61.1±8.3% | spike amplitude ([4]; 400 mg/kg, third hour): 55.1±6.6% | effectiveness in status epilepticus model ([4]; high dose 600 mg/kg): effective | effectiveness in status epilepticus model ([4]; lower dose 400 mg/kg): partial effectiveness | reduction in inositol levels [5]: no significant reduction | intensity and diameter of fluorescent lipid droplets compared to untreated cells [6]: increase
